Consider one compound from article PMC3781034, “A Small-Animal Pharmacokinetic/Pharmacodynamic PET Study of Central Serotonin 1A Receptor Occupancy by a Potential Therapeutic Agent for Overactive Bladder” (PLoS ONE, 2013).

Where two headings read alike, the source gives them in different places.

The nature of data set [1]: Protein binding of E2110 in rat plasma (equilibrium dialysis). It counts as in vitro ADME. The method, then: The in vitro unbound fraction of […] in male SD rat plasma was quantified by equilibrium dialysis. One mL of the […] spiked sample (100, 1000 and 10000 ng/mL) and phosphate buffered saline (PBS) were applied to one and the other chambers of a dialysis cell, respectively. The cartridge was incubated in a water bath for 24 hr at 37°C. After incubation, aliquots were sampled from both chambers and submitted to determination of the concentration of […] in each matrix by liquid chromatography-tandem mass spectrometry. Unbound fractions for each compound were calculated as the ratio of […] concentration from the PBS side to that from the plasma side of the dialysis apparatus. Concentrations of […] were determined in plasma or PBS by liquid chromatography - tandem mass spectrometry. Samples (5 μL) were injected into an L-column ODS (35 × 2.1 mm; 5 μM, Chemical Evaluation and Research Institute, Tokyo, Japan) with a flow rate of 0.6 mL/min. We used 0.1% formic acid in water and acetonitrile as mobile phase A and B, respectively. […] […] was monitored using mass transitions of 490.4/459.2. Tamsulosin was used as an internal standard, and was monitored using a mass transition of 409.3/200.0. The lower limit of quantification of […] in plasma was 0.5 ng/mL.

The target in the next data set is T1, 5-HT1A receptors (Rattus norvegicus, UniProt P19327).
T1 construct: occupancy of 5-HT1A receptors in living Sprague-Dawley rat brains; from tissue; host or cells: living Sprague-Dawley rat brain (medial prefrontal cortex, dorsal raphe nucleus), in vivo PET
T1 sequence (P19327 1-422): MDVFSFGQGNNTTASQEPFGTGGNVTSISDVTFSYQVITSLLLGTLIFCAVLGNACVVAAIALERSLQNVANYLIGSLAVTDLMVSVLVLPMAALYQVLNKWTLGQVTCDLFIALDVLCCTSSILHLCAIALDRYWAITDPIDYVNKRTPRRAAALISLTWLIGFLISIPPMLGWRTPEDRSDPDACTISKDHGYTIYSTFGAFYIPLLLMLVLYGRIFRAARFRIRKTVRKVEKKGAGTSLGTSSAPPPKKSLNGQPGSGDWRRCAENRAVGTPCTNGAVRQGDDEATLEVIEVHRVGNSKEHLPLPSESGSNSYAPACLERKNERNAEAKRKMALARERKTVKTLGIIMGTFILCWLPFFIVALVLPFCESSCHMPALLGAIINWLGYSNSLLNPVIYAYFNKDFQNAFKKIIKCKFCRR
The experiment in a line: PET 5-HT1A receptor occupancy, time-course study (effect compartment model). The conditions noted are these: for EC50: time-course study. Type of data set: in vivo, Sprague-Dawley rat. As to the method: All PET scans for rats were performed with a small animal-dedicated microPET FOCUS 220 system (Siemens Medical Solutions USA, Knoxville, TN, USA), which yields a 25.8 cm (transaxial) × 7.6 cm (axial) field of view (FOV) and a spatial resolution of 1.3 mm full width at half maximum at the center of FOV [8]. The rats were anesthetized with 1.5-2% isoflurane in air (2 L/min flow rate). Their body temperature was controlled using homeothermic controller and plate with a rectal probe, and their heart rates and arterial oxygen saturations were continuously measured by a pulse oximeter (CANL-425SVA; Med Associates, St. Albans, VT, USA). We also monitored respiration rates of these animals with a custom-made monitoring system (Nagano Electronics, Hitachinaka, Japan). A 20-min transmission scan for attenuation correction was performed using a spiraling ^68Ge-^68Ga point source. Subsequently, list-mode scans were carried out for 90 min. All list-mode data were sorted and Fourier rebinned into two-dimensional sinograms (frames: 4 × 1, 8 × 2, and 14 × 5 min). Images were thereafter reconstructed using two-dimensional filtered back-projection with a 0.5-mm Hanning filter. [^11C]-WAY-100635 was injected via the tail vein as a single bolus at the start of emission scanning. The injected dose of the radiotracer was 85.3 ± 28.6 MBq/rat (mean ± SD).
Anatomical regions of interest (ROIs) were placed on the medial prefrontal cortex (MPFC) and dorsal raphe nucleus (DRN) using PMOD® image software (PMOD Group, Zurich, Switzerland) with reference to the MRI template. Radioligand binding was examined by calculating the binding potential (BP ND; ratio at equilibrium of specifically-bound radioligand to that of nondisplaceable radioligand in tissue) based on a simplified reference tissue model (SRTM) using the cerebellar time-radioactivity curve as reference.
Occupancy of 5-HT1A receptors by E2110 was calculated using the following equation:
RO(%)=BPND,baseline−BPND,drug/BPND,baseline×100 (2)
where BP ND, baseline and BP ND, drug are estimated BP ND at baseline and following drug administration, respectively.
To examine the dose-RO relationship at a single time point, four male SD rats, which had undergone a baseline PET imaging in advance, were scanned with PET at 4 hours after being pretreated with 4 oral doses (0.3, 1, 3, 10 mg/kg) of E2110. In this assay, approximately 250 µL of blood samples were collected from the tail vein upon initiation of the scan for quantification of plasma concentration of E2110. We further examined RO at different time points after the drug administration by conducting PET scans of four male SD rats at 2, 4, 6 or 8 hours after pretreatment with a single oral dose of 1 mg/kg E2110. In addition to this series of PET assays for male rats, pilot PET scans for female rats (n = 3) were carried out at baseline and 4 hours after oral administration of 0.1 mg/kg E2110 to examine whether relationships between plasma concentration of E2110 and RO by this drug in the brain are consistent between two genders. In all experiments, scans for the same individual receiving E2110 were conducted more than 1 week apart.
The effect compartment model is illustrated in Figure 2. The mean plasma concentration profile of E2110 in each of four rats was fitted by two-compartment model with first order absorption and elimination. A sigmoid Emax model (Equation 4) based on the concentration in the effect compartment was fitted to the PD (RO) data. PK and PD models were linked using an effect compartment model described by the following equation: […]
where Cp and Ce are concentrations of E2110 in the plasma and effect compartments, respectively, and ke0 represents the equilibration rate constant for the effect compartment. PK and PD parameters were estimated by using […] (Version 2.01, MicroMath Research, UT, USA).

In another data set the test system is micturition interval. The experiment in a line: 5-HT1A receptor agonist (8-OH-DPAT)-induced model of OAB, cystometry. It counts as in vivo, female SD rats.
Another data set deals with P-glycoprotein. The experiment in a line: Brain-to-plasma ratio in Mdr1a/1b-knockout vs wild-type mice. Type of data set: in vivo. The conditions noted are these: rodents, BBB drug transporter; data not shown.

Experimental for micturition interval: Catheter implantations and cystometric investigations were performed based on the reported method [14]. Briefly, on the day before the cystometric experiment, female SD rats were initially anesthetized with pentobarbital (50 mg/kg ip). Catheters were inserted into the femoral vein, the dome of the stomach and the dome of the bladder. In the cystometric study, the bladder catheter was connected to an infusion pump and a pressure transducer (DX-312; Nihon Kohden Co., Tokyo, Japan) by three-way stopcock. Saline was infused into the bladder and femoral vein. After bladder pressure was stabilized, 8-OH-DPAT (0.06 mg/kg/h) was infused into the femoral vein instead of saline. Bladder pressure was monitored with a pressure transducer and a pressure amplifier (AP-601G; Nihon Kohden), and recorded on a pen recorder (WT-645G; Nihon Kohden). The following three micturition intervals (i.e., intervals between consecutive peaks of bladder pressure induced at the time of bladder content evacuation) were obtained: (1) basal micturition interval (intervals before 8-OH-DPAT administration), (2) pre-administration micturition interval, (intervals immediately before administration of E2110 or vehicle), and (3) post-administration micturition interval (intervals observed between 1 and 2 hr after administration of E2110 or vehicle). […] E2110 (0.03, 0.1 or 0.3 mg/kg) or vehicle was administered to four groups of eight conscious rats orally.
Data are expressed as mean ± standard error of mean (S.E.M). In the pharmacological study, the statistical significance of differences between the vehicle- and E2110-treated groups was tested using one-way analysis of variance (ANOVA) followed by Dunnett’s multiple comparison test. A probability (p) value of <0.05 (two-sided) was considered statistically significant. All statistical analyses were performed using the SAS software package version 8.1 or 8.2 (SAS Institute Japan Ltd., Tokyo, Japan).

As to `CNC(=O)c1ccc2ccn(C3CCN(CCc4c(OC)ccc5c4OC(C)(C)CC5=O)CC3)c2c1.O=C(O)/C=C/C(=O)O` [E2110, 1-{1-[2-(7-Methoxy-2,2-dimethyl-4-oxochroman-8-yl)ethyl]piperidine-4-yl}-N-methyl-1H-indole-6-carboxamide fumarate], in data set [1] (at 0.1, 1 µM), the “concentration dependence of binding to plasma proteins” value is listed as “not dependent on its concentration”. In addition, the “average percentage of protein-unbound E2110 in plasma” value in data set [1] (male SD rat plasma, equilibrium dialysis 24 hr 37°C) came out at 6%. In addition, the EC50 at 5-HT1A receptors (DRN, 1 mg/kg oral, male SD rats, effect compartment model, read-out: EC50 for occupancy of 5-HT1A receptors (converted)) is 7.38 nM; on 5-HT1A receptors (DRN, effect compartment model, read-out: EC50 for occupancy of 5-HT1A receptors (converted)), 5.94 nM; on 5-HT1A receptors (DRN, read-out: EC50 for 5-HT1A RO, value in parentheses (free concentration-based)) it was 0.44 nM; on 5-HT1A receptors (MPFC, 1 mg/kg oral, male SD rats, effect compartment model, read-out: EC50 for occupancy of 5-HT1A receptors (converted)), 5.85 nM; at 5-HT1A receptors (MPFC, effect compartment model, read-out: EC50 for occupancy of 5-HT1A receptors (converted)) it was 4.74 nM; at 5-HT1A receptors (MPFC, read-out: EC50 for 5-HT1A RO, value in parentheses (free concentration-based)) it was 0.35 nM. Also, at 5-HT1A receptors (Sprague-Dawley, rat, effect compartment model, 1 mg/kg oral, male SD rats, read-out: CNS equilibration t1/2 (from ke0) (converted)), the half-life was 1.4 h. The “5-HT1A RO measured by PET versus simulated RO” value on 5-HT1A receptors (female rats, 4 hours after oral 0.1 mg/kg, pilot study n = 3) is “in good agreement with calculated data”. For the same compound, the “minimum dose exerting overt therapeutic effects on the micturition reflex” value in the data set on micturition interval (8-OH-DPAT model, oral) is recorded as 0.1 mg/kg. Also, the “effect on micturition interval” value with micturition interval (oral 0.1-0.3 mg/kg, 8-OH-DPAT-infused female SD rats, 1-2 hr after administration) was “significantly (p < 0.05) prolonged the micturition intervals”. In addition, the P-glycoprotein substrate status entry in the data set on P-glycoprotein is given as “substrate for the BBB drug transporter P-glycoprotein”.
